Series [1] concerns the target T1, PRMT5/MEP50-MTA protein complex (Homo sapiens, UniProt O14744).
T1 construct: purchased Viva Biotech
In words: Thermal shift assay: change in melting temperature of the PRMT5/MEP50-MTA protein complex. The class given is binding. The conditions noted are these: compound 8 µM, PRMT5/MEP50 2 µM, MTA 2 µM; Tm minus DMSO vehicle control. The source says:
Test Example 1: Determination of the ability of the compounds of the present invention to improve the thermal stability (melting temperature) of the PRMT5/MEP50-MTA protein complex.
1. Experimental objective: The objective of this test example is to determine the ability of the compound to improve the thermal stability of the PRMT5/MEP50-MTA protein complex, resulting in an increase in the protein melting temperature. 2. Experimental instruments: Quantitative PCR instrument (Quantstudio6 Flex) was purchased from Life Technologies; pipettes were purchased from Eppendorf or Rainin. 3. Experimental reagents and consumables: PRMT5/MEP50 protein was prepared by Viva Biotech; HEPES was purchased from Thermo Fisher Scientific (Cat. No. 15630080); DTT was purchased from Sigma (Cat. No. 43816-10ml); sodium chloride was purchased from Invitrogen (Cat. No. AM9760G); Protein Thermal Shift™ Dye Kit was purchased from Thermo Fisher Scientific (Cat. No. 4461146); methylthioadenosine (MTA) was purchased from Sigma (Cat. No. D5011). 4. Experimental methods: In this experiment, the thermal shift method was used to measure the change in the melting temperature (Tm) of the PRMT5/MEP50-MTA protein complex before and after compound binding, thereby characterising the ability of the compound to improve the thermal stability of the PRMT5/MEP50-MTA protein complex. A solution containing 50 mM HEPES, 10 mM DTT, 2 µM MTA, SYPRO Orange and 250 mM NaCl was prepared as the experimental buffer. Human PRMT5/MEP50 protein was added to a final concentration of 2 µM, and the mixture was incubated at room temperature for 30 minutes. The above reaction mixture was aliquoted into 8-strip PCR tubes at 19.5 µL per tube. Then 0.5 µL of test compound or DMSO was added to each tube, providing a total reaction volume of 20 µL and a final compound concentration of 8 µM. 2.5% DMSO was set as the vehicle control. After incubation at room temperature for 10 minutes, the PCR tubes were placed in a PCR instrument, and the melt curve function was selected to measure the melting temperature of the PRMT5/MEP50-MTA protein complex in different treatment groups (heated from 25°C to 95°C, 0.03°C/s). 5. Experimental data processing method: The experimental data files from the PCR instrument were imported into the thermal shift software to obtain the melting temperature (Tm) for each treatment group.

The test system of series [2] is MTAP Knockout HCT116 cells. In words: Cell proliferation inhibition (CellTiter-Glo), MTAP knockout cells. In kind it is cell-based. The conditions noted are these: for Selectivity: HCT116 versus MTAP Knockout HCT116; for IC50: Homo sapiens, HCT-116, MTAP Knockout HCT116 cells, 72-240 hours incubation, CellTiter-Glo. The text has this: (§1) Test Example 2: Determination of the inhibitory effect of the compounds of the present invention on the proliferation activity of HCT116 and MTAP Knockout HCT116 cells.
(§2) 1. Experimental objective: to determine the inhibitory effect of the compound on the proliferation activity of HCT116 wild-type and HCT116 MTAP knockout cells. 2. Experimental instruments: Centrifuge (Eppendorf 5810R); microplate reader (BioTek Synergy H1 or PerkinElmer Envision); pipette (Eppendorf or Rainin). 3. Experimental reagents: HCT116 and MTAP Knockout HCT116 cells were purchased from Nanjing Cobioer; Cell Titer-Glo was purchased from Promega (Cat. No. G7573); McCoy' 5A was purchased from Gibco (Cat. No. 12330031); FBS was purchased from Gibco (Cat. No. 10091148); PBS was purchased from Gibco (Cat. No. 10010023); trypsin was purchased from Gibco (Cat. No. 25200056); cell culture plates were purchased from Corning (Cat. No. 3610). 4. Experimental methods: HCT116 and MTAP Knockout HCT116 cells were cultured in McCoy'5A medium containing 10% FBS until an appropriate cell density was reached. The cells were then collected and adjusted to a suitable concentration using complete medium. The cell suspension was seeded into a 96-well plate at 90 µL per well and allowed to adhere overnight in a 37°C, 5% CO2 incubator. Compound solutions of various concentrations were prepared using DMSO and culture medium, with a vehicle control set. The compound solutions were added to the 96-well plate at 10 µL per well, and the plate was incubated in a 37°C, 5% CO2 incubator for an additional 72-240 hours. After incubation, CellTiter-Glo solution was added, and the mixture was mixed uniformly by shaking, followed by incubation in the dark for 10 to 30 minutes. Luminescence was measured using a Synergy H1 or Envision microplate reader. 5. Experimental data processing method: The inhibition rate was calculated using the luminescence signal values, and the concentrations along with the inhibition rates were subjected to non-linear regression curve fitting using Graphpad Prism software to obtain the IC50 values.

Series [3] has as its system HCT116 wild-type cells. As to the kind of experiment: Cell proliferation inhibition (CellTiter-Glo), wild-type cells. In kind it is cell-based. The conditions noted are these: Homo sapiens, HCT-116, HCT116 wild-type cells, 72-240 hours incubation.
Description: as §1, §2

Series [4] can be described thus: Pharmacokinetics in rats (plasma) after oral administration. The conditions noted are these: male, SD, rat, 5 mg/kg.
Description: Test Example 4: Determination of the pharmacokinetics of the compounds of the present invention in rats (plasma) after oral administration.
Study objective: SD rats were used as test animals to study the pharmacokinetic behaviour of the following example compounds in rats (plasma) after oral administration at a dose of 5 mg/kg. […] Test scheme 2.1 Test drugs: Vehicle formula: 0.5% CMC-Na (1% Tween 80); the examples of the present invention, prepared in house. 2.2 Test animals: 3 SD rats per group, male, purchased from Shanghai Bikai Keyi Biotechnology Co., Ltd., with animal license number (SCXK (Shanghai) 2018-0006, No.20180006037467). 2.3 Administration: 3 SD rats per group, male, were fasted overnight and then respectively administered PO at a dose of 5 mg/kg and a volume of 10 mL/kg. 2.4 Sample collection: 0.2 mL of blood was collected from the jugular vein of rats before administration and at 0, 0.25, 0.5, 1, 2, 4, 6, 8 and 24 h after administration, and placed in EDTA-K2test tubes, and the test tubes were centrifuged at 6,000 rpm at 4°C for 6 min to separate the plasma, which was stored at -80°C. The animals were fed 4 h after administration. 2.5 Sample treatment • 1) 160 uL of acetonitrile was added to 40 uL of plasma sample for precipitation, and after mixing, the mixture was centrifuged at 3,500 × g for 5-20 minutes. • 2) 100 uL of the treated supernatant solution was taken for LC/MS/MS analysis to determine the concentration of the test compounds. 2.6 Liquid phase analysis • Liquid phase conditions: Shimadzu LC-20AD pump; • Mass spectrometry conditions: AB Sciex API 4000 mass spectrometer; • Chromatographic column: phenomenex Gemiu 5 um C18 50 × 4.6 mm; • Mobile phase: solution A: 0.1% formic acid in water, solution B: methanol; • flow rate: 1.0 mL/min; Elution time: 0-4.0 min, with eluents as follows:
Experimental results and analysis: The main pharmacokinetic parameters were calculated using WinNonlin 8.2.

T1 sequence (O14744 whole entry): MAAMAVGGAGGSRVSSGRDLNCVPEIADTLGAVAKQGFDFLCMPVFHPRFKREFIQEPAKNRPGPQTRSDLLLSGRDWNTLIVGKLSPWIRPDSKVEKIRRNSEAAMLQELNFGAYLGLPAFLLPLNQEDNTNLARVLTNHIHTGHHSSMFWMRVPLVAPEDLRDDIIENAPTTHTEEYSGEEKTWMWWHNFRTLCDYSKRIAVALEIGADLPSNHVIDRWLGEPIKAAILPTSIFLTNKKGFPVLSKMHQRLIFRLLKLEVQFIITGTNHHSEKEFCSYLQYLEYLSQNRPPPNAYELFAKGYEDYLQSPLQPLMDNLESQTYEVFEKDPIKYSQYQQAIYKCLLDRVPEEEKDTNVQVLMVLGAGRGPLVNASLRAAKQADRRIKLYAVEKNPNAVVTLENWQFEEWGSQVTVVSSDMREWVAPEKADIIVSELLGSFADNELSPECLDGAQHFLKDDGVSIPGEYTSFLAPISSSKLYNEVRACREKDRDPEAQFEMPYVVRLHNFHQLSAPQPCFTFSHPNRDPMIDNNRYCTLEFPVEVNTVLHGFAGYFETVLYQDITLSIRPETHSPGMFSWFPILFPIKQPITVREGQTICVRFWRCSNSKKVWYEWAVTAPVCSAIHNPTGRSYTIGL
T1 sequence (Q9BQA1 whole entry partner): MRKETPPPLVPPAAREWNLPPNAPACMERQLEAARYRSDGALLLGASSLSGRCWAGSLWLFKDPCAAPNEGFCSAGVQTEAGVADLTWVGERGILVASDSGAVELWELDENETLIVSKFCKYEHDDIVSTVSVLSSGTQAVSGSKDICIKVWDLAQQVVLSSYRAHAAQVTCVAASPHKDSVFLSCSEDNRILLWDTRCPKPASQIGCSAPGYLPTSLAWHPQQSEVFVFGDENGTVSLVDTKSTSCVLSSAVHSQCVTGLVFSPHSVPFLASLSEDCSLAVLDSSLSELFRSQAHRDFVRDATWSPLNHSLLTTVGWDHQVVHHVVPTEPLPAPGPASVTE

As for `CNN(C(=O)c1cc2c(cn1)nc(N)c1cnn(C)c12)[C@@H]1COc2cc(S(F)(F)(F)(F)F)ccc21` (single isomer, unassigned) [Example 375-P1], in series [1], the ΔTm at 8 µM turned out to be 13 °C. Moreover, in series [2], the Selectivity amounted to 17 and the IC50 came out at 7.9 nM. In addition, in series [3], the IC50 is 133 nM. Also, in series [4], the area under the curve AUC(0-inf) came to 2130 ng·h/mL, the highest level (Cmax) was 287 ng/mL, the mean residence time MRT inf worked out at 5 h and the Tmax came out at 1.3 h. The same molecule showed a half-life in series [4] of 3.3 h.

For the molecule `[2H]C([2H])([2H])NN(C(=O)c1cc2c3c(c(N)nc2cn1)COC3)[C@H]1COCc2c1ccn1c(C(F)(F)F)cnc21` (stereo in doubt) [Example 371-P1, (R)-4-amino-N'-(methyl-d3)-N-(3-(trifluoromethyl)-7,10-dihydro-8H-imidazo[1,2-a]pyrano[3,4-c]pyridin-7-yl)-1,3-dihydrofuro[3,4-c][1,7]naphthyridine-8-carbohydrazide], the ΔTm at 8 µM in series [1] worked out at 11.6 °C. For the same molecule, in series [2], the Selectivity is 121 and the IC50 was 8.5 nM. For the same molecule, the IC50 in series [3] was determined as 1040 nM. For the same molecule, in series [4], the AUC(0-inf) worked out at 4800 ng·h/mL, the concentration peaked (Cmax) at 1600 ng/mL, the MRT inf was found to be 2.5 h and the Tmax is 0.8 h. Further, the half-life in series [4] was 1.6 h.

With `Cc1cc2nc(N)c3cncn3c2cc1C(=O)N(C)C1COCc2c1ccn1c(C(F)(F)F)cnc21` (stereo not drawn) [Example 62, 4-Amino-N,7-dimethyl-N-(3-(trifluoromethyl)-7,10-dihydro-8H-imidazo[1,2-a]pyrano[3,4-c]pyridin-7-yl)imidazo[1,5-a]quinoxaline-8-carboxamide], in series [1], the ΔTm at 8 µM turned out to be 12.5 °C. In addition, in series [2], the Selectivity is 113 and the IC50 was determined as 7.2 nM. Besides, in series [3], the half-maximal inhibitory concentration (IC50) is 808 nM.

On to `CN(C(=O)c1ccc2nc(N)c3cnn(C)c3c2c1)C1COCc2c1ccn1c(C(F)(F)F)cnc21` (stereo not drawn) [Example 83, 4-Amino-N,1-dimethyl-N-(3-(trifluoromethyl)-7,10-dihydro-8H-imidazo[1,2-a]pyrano[3,4-c]pyridin-7-yl)-1H-pyrazolo[4,3-c]quinoline-8-carboxamide], for which the ΔTm at 8 µM in series [1] was 11.8 °C. Also, in series [2], the Selectivity is listed as 164 and the half-maximal inhibitory concentration (IC50) came to 4.8 nM. In series [3], the IC50 worked out at 790 nM.

Regarding `CCNN(C(=O)c1cc2c(cc1C)nc(N)c1cncn12)C1COCc2nc(C(F)(F)F)ccc21` (stereo not drawn) [Example 277, 4-Amino-N'-ethyl-7-methyl-N-(2-(trifluoromethyl)-5,8-dihydro-6H-pyrano[3,4-b]pyridin-5-yl)imidazo[1,5-a]quinoxaline-8-carbohydrazide], the ΔTm at 8 µM in series [1] was found to be 12.9 °C. For the same molecule, in series [2], the Selectivity worked out at 17 and the IC50 is 12 nM. For the same molecule, in series [3], the IC50 came to 207 nM.

For the molecule `CNN(C(=O)c1cc2c(cc1F)nc(N)c1cncn12)C1COCc2c1ccn1c(C(F)(F)F)cnc21` (stereo not drawn) [Example 282, 4-Amino-7-fluoro-N'-methyl-N-(3-(trifluoromethyl)-7,10-dihydro-8H-imidazo[1,2-a]pyrano[3,4-c]pyridin-7-yl)imidazo[1,5-a]quinoxaline-8-carbohydrazide], the ΔTm at 8 µM in series [1] is 12.3 °C. In series [2], the Selectivity was found to be 145 and the IC50 turned out to be 17 nM. Besides, the concentration for half-maximal inhibition (IC50) in series [3] turned out to be 2450 nM.

On to `CNN(C(=O)c1cc2c3c(c(N)nc2cn1)COC3)[C@@H]1COCc2c1ccn1c(C(F)(F)F)cnc21` [Example 285, 4-Amino-N'-methyl-N-(3-(trifluoromethyl)-7,10-dihydro-8H-imidazo[1,2-a]pyrano[3,4-c]pyridin-7-yl)-1,3-dihydrofuro[3,4-c][1,7]diazanaphthalene-8-carbohydrazide], for which the ΔTm at 8 µM in series [1] turned out to be 11.6 °C. Moreover, in series [2], the Selectivity is reported as 120 and the concentration for half-maximal inhibition (IC50) was found to be 10 nM. Also, in series [3], the IC50 turned out to be 1150 nM. Besides, in series [4], the AUC(0-inf) was 4980 ng·h/mL, the Cmax was determined as 999 ng/mL, the MRT inf stood at 4.8 h and the Tmax stood at 0.8 h. The same molecule showed a half-life in series [4] of 4.2 h.

Consider `CNN(C(=O)c1cc2c3c(c(N)nc2cc1C)COC3)C1COCc2nc(C(F)(F)F)ccc21` (stereo not drawn) [Example 307, 4-Amino-7-methyl-N'-methyl-N-(2-trifluoromethyl-5,8-dihydro-6H-pyrano[3,4-b]pyridin-5-yl)-1,3-dihydrofuro[3,4-c]quinoline-8-carbohydrazide], for which the ΔTm at 8 µM in series [1] came out at 12.7 °C. Moreover, in series [2], the Selectivity is given as 73. The half-inhibitory concentration (IC50) was found to be 15 nM in series [2] and 1060 nM in series [3].

As to `[2H]C([2H])([2H])NN(C(=O)c1ccc2nc(N)c3cnn(C)c3c2c1)[C@@H]1COCc2nc(C(F)(F)F)ccc21` [Example 317], the ΔTm at 8 µM in series [1] was found to be 11.6 °C. In series [2], the Selectivity was 130 and the IC50 was 3.9 nM. Besides, the IC50 in series [3] amounted to 508 nM. For the same molecule, in series [4], the AUC(0-inf) amounted to 739 ng·h/mL, the Cmax was 240 ng/mL, the MRT inf stood at 2.8 h and the Tmax amounted to 1 h. In series [4], this molecule gave a half-life of 1.9 h.

Take `[2H]C([2H])([2H])NN(C(=O)c1ccc2nc(N)c3cnn(C)c3c2c1)C1([2H])COCc2nc(C(F)(F)F)ccc21` (stereo not drawn) [Example 324, 4-Amino-N-[5-deuterio-2-(trifluoromethyl)-6,8-dihydropyrano[3,4-b]pyridin-5-yl]-1-methyl-N'-(trideuteriomethyl)pyrazolo[4,3-c]quinoline-8-hydrazide]: the ΔTm at 8 µM in series [1] stood at 11.1 °C. For the same molecule, the Selectivity in series [2] turned out to be 155. Moreover, the IC50 worked out at 15 nM in series [2] and 2380 nM in series [3].

`[2H]C([2H])([2H])NN(C(=O)c1cc2c3c(c(N)nc2cn1)COC3)[C@@]1([2H])COCc2c1ccn1c(C(F)(F)F)cnc21` [Example 354-P1, (R)-4-amino-N'-(methyl-d3)-N-(3-(trifluoromethyl)-7,10-dihydro-8H-imidazo[1,2-a]pyrano[3,4-c]pyridin-7-yl-7-d)-1,3-dihydrofuro[3,4-c][1,7]naphthyridine-8-carbohydrazide]: the ΔTm at 8 µM in series [1] stood at 11.6 °C. In series [2], the Selectivity amounted to 107 and the IC50 came to 23 nM. For the same molecule, the IC50 in series [3] was determined as 2470 nM.

For `CNN(C(=O)c1ccc2nc(N)c3cnn(C)c3c2c1)C1COCc2nc(S(F)(F)(F)(F)F)ccc21` (stereo not drawn) [Example 448], the ΔTm at 8 µM in series [1] is 12.3 °C. Moreover, in series [2], the Selectivity was found to be 44. Further, the IC50 worked out at 7.8 nM in series [2] and 344 nM in series [3].

For `CNN(C(=O)c1cc2c(cc1C)nc(N)c1cnn(C)c12)C1COc2cc(S(F)(F)(F)(F)F)ccc21` (stereo not drawn) [Example 451, 4-Amino-N',1,7-trimethyl-N-(6-(pentafluorosulphanyl)-2,3-dihydrobenzofuran-3-yl)-1H-pyrazolo[4,3-c]quinoline-8carbohydrazide], the ΔTm at 8 µM in series [1] is 13.7 °C. Also, in series [2], the Selectivity was found to be 21 and the IC50 came out at 4.2 nM. Also, in series [3], the IC50 came out at 89 nM.

Source of the values: patent EP4818177A1, “TRICYCLIC DERIVATIVE INHIBITOR, AND PREPARATION METHOD AND USE THEREFOR” (Shanghai Hansoh Biomedical Co., Ltd., priority 2023, dated 2025).
